Results: patent US11576979B2, “Pyrrolobenzodiazepine prodrugs and antibody conjugates thereof” (GENENTECH, INC., priority 2016, dated 2023)

How the values were obtained:
SK-BR-3 = assay: CellTiter-Glo toxicity, 3 days (Example 7); format: cell-based; details: Homo sapiens, SK-BR-3, 72 h, read-out: SK-BR-3 IC50 (nM)
Experimental: The toxicity of PBD monomer disulfide prodrugs 1 to 4, PBD dimer disulfide prodrugs 1 and 4, PBD monomer control 1 and PBD dimer control 1 were evaluated against SK-BR-3 cell cultures. […] The HER2-positive breast cancer cell line, SK-BR-3, was obtained internally at Genentech after having been verified by sequence analysis. The cells were grown at 37 Celsius in DMEM+10% FBS supplemented with 2 mM L-glutamine for the duration of this assay. On the first day of the experiment, designated “Day −1”, SK-BR-3 cells were harvested from tissue culture flasks, counted, and then seeded into 96-well plates at a concentration of 7,500 cells per well. The next day, designated “Day 0”, cell culture media was removed from the cells and replaced with 100 uL of fresh media containing a serial dilution (1:3) of the compounds in Table 5 below. The plates were then returned to the 37 Celsius incubator and allowed to incubate for 3 days. On “Day 3” of the assay, the plates were removed from the incubator and allowed to equilibrate to room temperature before adding 100 uL of room-temperature CellTiter-Glo reagent (Promega). The plates were then agitated at 300 rpm for 10 minutes. The luminescence signal generated from this reaction was recorded on an Envision plate reader (Perkin-Elmer). The data were arranged in Excel (Microsoft) and graphed in Kaleidagraph (Synergy Software).

Igrov-1 = assay: CellTiter-Glo toxicity, 4 days (Example 9); format: cell-based; details: Homo sapiens, IGROV-1, 96 h, 4 days of drug incubation; Table 7A
Outline: (§1)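 Cells were seeded in 384-well plates, dosed 24 h later and incubated with drug for 4 days. Viability was read as ATP luminescence by CellTiter-Glo and normalised to untreated controls. IC50 is the concentration giving 50% of maximum cell killing.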

UACC-257 = assay: CellTiter-Glo toxicity, 4 days (Example 9); format: cell-based; details: Homo sapiens, UACC-257, 96 h, 4 days of drug incubation; Table 7A
Outline: as §1

BJAB = assay: Standard cell panel (Table 7B); format: cell-based; details: Homo sapiens
Source text: (§2) PBD dimer control 1 and PBD dimer control 2 were further evaluated in standard cell panels against a number of cell lines.

HCC1569 X2 = assay: Standard cell panel (Table 7B); format: cell-based; details: Homo sapiens
Source text: as §2

HCC1937 = assay: Standard cell panel (Table 7B); format: cell-based; details: Homo sapiens
Source text: as §2

KPL-4 = assay: Standard cell panel (Table 7B); format: cell-based; details: KPL4
Source text: as §2

MES-SA/Dx5 = assay: Standard cell panel (Table 7B); format: cell-based; details: Homo sapiens
Source text: as §2

MES-SA = assay: Standard cell panel (Table 7B); format: cell-based; details: Homo sapiens
Source text: as §2

NCI-H1781 = assay: Standard cell panel (Table 7B); format: cell-based
Source text: as §2

SW 900 = assay: Standard cell panel (Table 7B); format: cell-based; details: Homo sapiens, SW900
Source text: as §2

T-47D = assay: Standard cell panel (Table 7B); format: cell-based; details: Homo sapiens, T47D
Source text: as §2

KPL-4 Cell line = assay: Cell viability, DTD-activated quinone prodrugs (Example 15); format: cell-based; details: KPL4, read-out: IC50 Potency (nM)
Experimental: (§3) The toxicity of PBD dimer diaphorase prodrug 1, PBD monomer diaphorase prodrug 2, PBD dimer control 1 and PBD monomer control 1 were evaluated against KPL-4 and WSU cell lines for cell viability. The KPL-4 cell line is was a high DTD cell line characterized by NQO1 nRPKM of 839 and the WSU cell line was a low DTD cell line characterized by a NQO1 nRPKM of 1.36. The IC50 ratios are based on the prodrug IC50 value relative to the PBD dimer control.

WSU Cell line = assay: as above; format: cell-based; details: read-out: IC50 Potency (nM)
Experimental: as §3

[1] = system: double strand DNA Oligos 1 and 2; assay: DNA oligo binding, LC/MS/UV; details: 100 uM compound, 100 uM DNA, 1 hour, 37 C
Experimental: For DNA binding determination, the compounds were incubated at 100 μM with 100 μM double strand DNA Oligos 1 and 2 for 1 hour in 10 mM Bis-Tris, pH 7.1 at 37° C. The single strand DNA Oligos (5′-TATAGAATCTATA-3′ and 3′-ATATCTTAGATAT-5′) were synthesized at Genentech. The samples were analyzed by LC/MS/UV (210-450 nm) on Sciex TripleTOF 5600 on a Hypersil Gold C18 column (100×2.1, 1.9 Thermo Scientific). The column was eluted at 0.4 mL/min by a gradient of buffer A (50 mM hexafluoro-isopropanol and 15 mM diisopropylethylamine) to buffer B (50% A and 50% of 1:1 methanol:acetonitrile), 5% 0-0.5 min, 5-25% B 0.5-25 min, 25-95% B 25-40 min, and to 95% B 40-42 min. The % remaining was an average of the starting DNA oligos remaining in incubations (n=2). The products were characterized by LC/MS in a negative ESI ion mode.

Work on C=C1C[C@H]2C=Nc3cc(OCCCCCOc4cc5c(cc4OC)C(=O)N4CC(=C)C[C@H]4C=N5)c(OC)cc3C(=O)N2C1 [PBD dimer control 1] yielded an IC50 (SK-BR-3) of 0.144 nM, an IC50 (Igrov-1) of 0.061 nM and an IC50 (UACC-257) of 0.95 nM. It also gave an IC50 (BJAB) of 0.015 nM, an IC50 (HCC1569 X2) of 0.097 nM and an IC50 (HCC1937) of 0.15 nM. It also gave an IC50 (KPL-4) of 0.053 nM, an IC50 (MES-SA/Dx5) of 0.56 nM and an IC50 (MES-SA) of 0.028 nM. It also gave an IC50 (NCI-H1781) of 0.011 nM, an IC50 (SW 900) of 0.078 nM and an IC50 (T-47D) of 0.032 nM. For the same molecule, the IC50 (KPL-4 Cell line) was 2.09 nM, the IC50 (WSU Cell line) was 0.2 nM and the “% DNA oligo remaining” value [1] was <1%.
